Test results from PMC7038073, “Substituted Piperazines as Novel Potential Radioprotective Agents” (Molecules, 2020).
Several values for one entry are separate records, joined by “and”; a condition that tells them apart may be missing. Equal entries are not always repeated.

Legend:
[1] = WST-1 cytotoxicity test, A549; type: cell-based; settings: human, A549 cells, 48 h, WST-1, mean ± SD of three experiments, read-out: relative viability (%) compared to untreated control; for viability at 48 h, 10 µM: A549, 10 µM; for viability at 48 h, 100 µM: A549, 100 µM
Experimental: (§1) In this study, the cytotoxic effects of nine new compounds (2, 3, 4, 5, 6, 7, 8, 9, 10) were tested on 10 human cell lines (nine cancer and one non-cancer cell line). The cell lines were treated with each compound at concentrations of 10 µM and 100 µM for 48 h. The proliferation capacity of the treated cells was determined by WST-1 test and compared against the proliferation rate of the untreated control cells (100%).
(§2) The cell lines Jurkat, MOLT-4, A2780, A549, HT-29, PANC-1, HeLa, MCF-7, SAOS-2, and MRC-5 (all purchased from Sigma Aldrich, Czech Republic) were included in this study. All cell lines were maintained according to the provider’s guidelines, and plated and treated in 96-well plates (500 to 30 × 10^3 cells per well). The tested compounds 2, 3, 4, 5, 6, 7, 8, 9, and 10 were dissolved in 0.1% DMSO and kept in 10 mM stock solutions. Before use, the stock solution was diluted in culture media at ratios of 1:100 and 1:1000. The studied cell lines were treated with the compounds 2, 3, 4, 5, 6, 7, 8, 9, and 10 at concentrations of 10 and 100 µM for 48 h. Control cells were tested in culture media with and without DMSO (0.1%). The cells were also treated with 1 µM doxorubicin as a cytotoxicity control.
(§3) The WST-1 (2-(4-iodophenyl)-3-(4-nitrophenyl)-5-(2,4-disulfophenyl)-2H-tetrazolium, monosodium salt) test (Roche, Mannheim, Germany) was used according to the manufacturer’s protocol to determine cell viability in all 10 cell lines 48 h after treatment with the tested compounds. The cells were analyzed in a Tecan Infinite M200 spectrometer (Tecan Group, Männedorf, Switzerland) at 440 nm.

[2] = WST-1 cytotoxicity test, HT-29; type: cell-based; settings: human, HT-29 cells, 48 h, WST-1, mean ± SD of three experiments, read-out: relative viability (%) compared to untreated control; for viability at 48 h, 10 µM: HT-29, 10 µM; for viability at 48 h, 100 µM: HT-29, 100 µM
Experimental: as §1, §2, §3

[3] = WST-1 cytotoxicity test, A2780; type: cell-based; settings: human, A2780 cells, 48 h, WST-1, mean ± SD of three experiments, read-out: relative viability (%) compared to untreated control; for viability at 48 h, 10 µM: A2780, 10 µM; for viability at 48 h, 100 µM: A2780, 100 µM
Experimental: as §1, §2, §3

[4] = system: BALB/c mice; assay: Safe use evaluation in vivo (MTD, symptoms, blood biochemistry, histopathology); design: key to piloerection / ataxia / prostration / tremor / excitation / saber-like tail / stooping / hyper/hypoventilation / drop of eyelids / lacrimation / convulsion: + (mild); ++ (moderate); +++ (severe); settings: for ALT / AST / Amylase / Glucose / Urea / ALP / Creatinine: plasma 48 h after MTD i.p.
Text: Mild to moderate signs of intoxication could be observed once the MTD (maximum tolerated dose) was reached. In vivo, MTD is described as the highest dose of a given compound that can be administered before showing signs of toxicity (based on the same dose regimen or series) and whose excess would be expected to be fatal, yielding unreliable results. Therefore, a staged approach (including core and intermediate dose levels) has become a suitable strategy in this regard.
The symptoms described in Tables S1 (in Supplementary Materials) and S2 (in Supplementary Materials) diminished spontaneously within 2 h. After observing these symptoms, MTD thresholds were set at 100, 200, 100, 200, 2000, and 650 mg/kg for compounds 4, 5, 6, 7, 8, and 10, respectively. Animals receiving MTD were further examined by necropsy 48 h after administration. Plasma (reflecting biochemical changes in blood), intestine with mesentery (site of administration), and liver and kidney (elimination organs) were collected to evaluate the toxic potential of the tested compounds. For evaluation of the impact of the compounds on organ function, we performed blood biochemistry test 48 h after administration. The test focused on seven important indicators: glucose and amylase for normal function of pancreas, alanine aminotransferase (ALT), aspartate aminotransferase (AST), and alkaline phosphatase (ALP) for the normal function of liver, and urea and creatinine for the normal function of kidneys. […] According to Thoolen et al., focal necrosis can be occasionally seen in untreated rodents and therefore is not pathognomonic of hepatotoxicity, which is consistent with our findings.
Both male and female BALB/c mice (Velaz s r.o., Prague, Czech Republic) with an average weight of 21 ± 0.8 g and 21 ± 0.8 g, respectively, were selected for the safe use evaluation in vivo. The mice were housed in environmentally controlled breeding units (Faculty of Military Health Sciences vivarium; temperature 21 ± 1 °C, 12/12 h light/dark cycle) with access to food (Cerea corp., Pardubice, Czech Republic) and water ad libitum. The acclimatization period of the mice was at least 10 days before each experiment. All experimental procedures and protocols were reviewed and approved by the Ethics Committee of the Faculty of Military Health Sciences in Hradec Kralove, University of Defence in Brno. Compounds 2, 3, 4, 5, 6, 7, 8, 9, and 10 were dissolved in physiological saline solution (B. Braun Melsungen AG, Melsungen, Germany) and injected intraperitoneally (i.p.) into the corresponding mouse groups, which were composed of two males and two females. Several doses were administered to determine the maximum tolerated dose (MTD), which was assessed by close observation for signs of toxicity within the first two hours after administration of the compounds, and then regularly over the following 48 h. The observed symptoms were registered according to the laboratory Animal Science Association UK guidelines (for a detailed description, see [36]. After 48 h, the surviving animals were euthanized with CO2 and evaluated by basic macroscopic necropsy. Venous blood was collected into heparinized tubes (Scanlab Systems, Prague, Czech Republic) and the plasma was separated in a U-320R centrifuge (Boeco, Hamburg, Germany) to further evaluate the toxic potential of the tested compounds. The concentrations of glucose, urea, and creatinine and the levels of alanine aminotransferase (ALT), aspartate aminotransferase (AST), alkaline phosphatase (ALP), and amylase were evaluated in a qualified biochemical laboratory of the University Hospital Hradec Kralove (Hradec Kralove, Czech Republic). Additionally, intestine, liver, and kidney samples were collected for histopathologic examination. […]

[5] = system: A549 cells; assay: MTT assay, IC50 and MTC; settings: for IC50 fold higher than that for compound 2 / MTC (maximum tolerated concentration): A549 cells, MTT; for MTC (maximum tolerated concentration): 24 h of treatment; for IC50: Homo sapiens, A549, 24 h, read-out: IC50 ± SEM
Experimental: In further experiments, MTT (3-(4,5-di-methylthiazol-2-yl)-2,5-diphenyltetrazolium bromide) assay was employed to evaluate the toxicological indexes of the newly synthesized compounds, including IC50 (half-maximal inhibitory concentration) and MTC (maximum tolerated concentration).
IC50 and MTC were determined through MTT assays. The MTT assay was performed according to [35]. In brief, the A549 cell line was plated in 96-well plates (100 µL, 9 × 10^3 cells per well) and incubated overnight. The tested compounds were prepared in phosphate buffer saline (PBS; Sigma–Aldrich) and serially diluted in DMEM (Dulbecco’s Modified Eagle Medium). An untreated control was included as a viability standard in each plate. After 24 h of treatment, the viability of A549 cells was measured at 570 nm. All experiments were performed in triplicate. The GraphPad Prism statistics software v5.04 (GraphPad Software Inc., San Diego, CA, USA) was used to calculate the IC50 values for parameter nonlinear regression. Values are expressed as mean ± SEM.

[6] = female BALB/c mice, animals 1 and 2
[7] = female mice, at MTD i.p., animals 1 and 2
[8] = male BALB/c mice, animals 1 and 2
[9] = male mice, at MTD i.p., animals 1 and 2

SMILES	viability at 48 h, 10 µM [1]	viability at 48 h, 100 µM [1]	viability at 48 h, 10 µM [2]	viability at 48 h, 100 µM [2]	viability at 48 h, 10 µM [3]	viability at 48 h, 100 µM [3]	ALT [4, 6]	AST [4, 6]	Amylase [4, 6]	Glucose [4, 6]	Urea [4, 6]	hyper/hypoventilation [4, 7]	prostration [4, 7]	tremor [4, 7]	ALP [4, 8]	ALT [4, 8]	AST [4, 8]	Amylase [4, 8]	Creatinine [4, 8]	Glucose [4, 8]	also measured
COc1ccc(NCCCN2CCN(CCO)CC2)cc1.Cl.Cl.Cl [Compound 7, 2-(4-(3-((4-methoxyphenyl)amino)propyl)piperazin-1-yl)ethanol trihydrochloride]	95 ± 5%	115%	96 ± 3%	118 ± 2%	94 ± 3%	91 ± 2%	22 U/L and 33 U/L	52 U/L and 71 U/L	2501 U/L and 1496 U/L	241 mg/dL and 178 mg/dL	40 mg/dL	++	+	++	78 U/L and 55 U/L	19 U/L and 29 U/L	48 U/L and 66 U/L	2272 U/L and 1858 U/L	23 µg/dL and 34 µg/dL	244 mg/dL and 194 mg/dL	drop of eyelids [4, 7]: +; Urea [4, 8]: 35 mg/dL and 38 mg/dL; drop of eyelids [4, 9]: +; hyper/hypoventilation [4, 9]: ++; prostration [4, 9]: ++; tremor [4, 9]: ++; weight at 24 h (%) [4, 9]: -0.3% and -1.5%; weight at 48 h (%) [4, 9]: 0.0% and -3.7%; IC50 fold higher than that for compound 2 [5]: 63.8 fold; MTC (maximum tolerated concentration) [5]: 0.39 mM; IC50 [5]: 2.55 ± 0.21 mM
Cl.Cl.Cl.OCCN1CCN(CC(O)CNc2ccccc2)CC1 (stereo not shown) [Compound 10, 1-(phenylamino]-3-[4-(2-hydroxyethyl)piperazin-1-yl)propan-2-ol trihydrochloride]	105 ± 9%	105 ± 2%	104 ± 11%	113 ± 2%	103 ± 6%	96 ± 2%	27 U/L and 24 U/L	55 U/L and 56 U/L	1939 U/L and 1826 U/L	225 mg/dL and 178 mg/dL	38 mg/dL	+	++	+	42 U/L and 61 U/L	24 U/L and 30 U/L	58 U/L and 51 U/L	2212 U/L and 2080 U/L	34 µg/dL	189 mg/dL and 236 mg/dL	histopathological change: focal necrosis ([4]; at MTD i.p., necropsy 48 h after administration, one animal each): five small foci; ALP [4, 6]: 67 U/L and 73 U/L; Creatinine [4, 6]: 68 µg/dL and 67 µg/dL; ataxia [4, 7]: +; convulsion [4, 7]: +; excitation [4, 7]: +; weight at 24 h (%) [4, 7]: -1.5% and -5.6%; Urea [4, 8]: 47 mg/dL and 43 mg/dL; ataxia [4, 9]: +; excitation [4, 9]: +; hyper/hypoventilation [4, 9]: +; prostration [4, 9]: ++; tremor [4, 9]: +; IC50 fold higher than that for compound 2 [5]: 126.5 fold; MTC (maximum tolerated concentration) [5]: 1.56 mM; IC50 [5]: 5.06 ± 0.23 mM
